Test results from patent publication EP2832223A1, “HERBICIDAL COMPOSITION” (Ishihara Sangyo Kaisha, Ltd., priority 2012, dated 2013).

What was measured:
Assay type in all cases: in vivo
[1] = system: korean lespedeza (Kummerowia stipulacea (Maxim.) Makino); assay: Test Example 6: pot test, soil treatment, visual growth inhibition; conditions: soil, read-out: Growth inhibition rate (%) of korean lespedeza Measured value
Method: (§1) Upland field soil was put into a 1/300,000 ha pot, and seeds of korean lespedeza (Kummerowia stipulacea (Maxim.) Makino) were sown. On the next day, predetermined amounts of ONEHOPE NYUZAI (tradename), Click (tradename), Mikado (tradename) and a wettable powder containing bicyclopyrone prepared in accordance with a conventional formulation method were diluted with water (in an amount corresponding to 1,000 L/ha) and applied for soil treatment by a small sprayer.
(§2) On the 14th day after treatment, the state of growth of the korean lespedeza was visually observed to determine the growth inhibition rate (%). The growth inhibition rate (%) (measured value) and the growth inhibition rate (%) calculated in the same manner as in the above Test Example 1 are shown in Table 6.

[2] = system: velvetleaf (Abutilon theophrasti Medic.); assay: Test Example 16: pot test, soil and foliar treatment, visual growth inhibition; conditions: read-out: Growth inhibition rate (%) of velvetleaf Measured value
From the text: (§3) Upland field soil was put into a 1/1,000,000 ha pot, and seeds of velvetleaf (Abutilon theophrasti Medic.) were sown. When the velvetleaf reached 4.0 to 4.3-leaf stage, seeds of velvetleaf were further sown in the same pot assuming conditions such that weeds would later grow. Three days later, predetermined amounts of ONEHOPE NYUZAI (tradename), Click (tradename), Callisto (tradename), Mikado (tradename), a wettable powder containing bicyclopyrone as an active ingredient and Clio (tradename) were diluted with water in an amount corresponding to 300 L/ha and applied for soil treatment and for foliar treatment by a small sprayer.
as §2, with “29th” for “14th”, “velvetleaf” for “korean lespedeza”, “16.” for “6.”

[3] = system: annual ragweed (Ambrosia artemisiifolia L.); assay: Test Example 11: pot test, soil treatment, visual growth inhibition; conditions: soil, read-out: Growth inhibition rate (%) of annual ragweed Measured value
Method: as §1, with “annual ragweed (Ambrosia artemisiifolia L.)” for “korean lespedeza (Kummerowia stipulacea (Maxim.) Makino)”
as §2, with “28th” for “14th”, “annual ragweed” for “korean lespedeza”, “11.” for “6.”

[4] = system: sunn-hemp (Crotalaria juncea L.); assay: Test Example 7: pot test, soil treatment, visual growth inhibition; conditions: soil, read-out: Growth inhibition rate (%) of sunn-hemp Measured value
Method: as §1, with “sunn-hemp (Crotalaria juncea L.)” for “korean lespedeza (Kummerowia stipulacea (Maxim.) Makino)”
as §2, with “28th” for “14th”, “sunn-hemp” for “korean lespedeza”, “7.” for “6.”

[5] = system: velvetleaf (Abutilon theophrasti Medic.); assay: Test Example 14: pot test, soil and foliar treatment, visual growth inhibition; conditions: read-out: Growth inhibition rate (%) of velvetleaf Measured value
From the text: as §3, with “On the next day,” for “Three days later,”
as §2, with “31 st” for “14th”, “velvetleaf” for “korean lespedeza”, “14.” for “6.”

[6] = system: Japanese millet (Echinochloa utilis Ohwi et Yabuno); assay: Test Example 13: pot test, soil and foliar treatment, visual growth inhibition; conditions: read-out: Growth inhibition rate (%) of Japanese millet Measured value
Method: Upland field soil was put into a 1/1,000,000 ha pot, and seeds of Japanese millet (Echinochloa utilis Ohwi et Yabuno) were sown. When the Japanese millet reached 3.8 to 4.0-leaf stage, seeds of Japanese millet were further sown in the same pot. On the next day, predetermined amounts of ONEHOPE NYUZAI (tradename), Click (tradename) and a wettable powder containing bicyclopyrone prepared in accordance with a conventional formulation method were diluted with water (in an amount corresponding to 1,000 L/ha) and applied for soil treatment and for foliar treatment by a small sprayer.
as §2, with “28th” for “14th”, “Japanese millet” for “korean lespedeza”, “13.” for “6.”

[7] = system: wild oat (Avena fatua L.); assay: Test Example 4: pot test, soil treatment, visual growth inhibition; conditions: soil, read-out: Growth inhibition rate (%) of wild oat Measured value
Method: as §1, with “1/1,000,000” for “1/300,000”, “wild oat (Avena fatua L.)” for “korean lespedeza (Kummerowia stipulacea (Maxim.) Makino)”, “Click” for “Click (tradename), Mikado”
as §2, with “28th” for “14th”, “wild oat” for “korean lespedeza”, “4.” for “6.”

[8] = system: Japanese millet (Echinochloa utilis Ohwi et Yabuno); assay: Test Example 9: pot test, soil treatment, visual growth inhibition; conditions: soil, read-out: Growth inhibition rate (%) of Japanese millet Measured value
Method: Upland field soil was put into a 1/300,000 ha pot, and seeds of Japanese millet (Echinochloa utilis Ohwi et Yabuno) were sown. On the next day, predetermined amounts of ONEHOPE NYUZAI (tradename), Click (tradename), Mikado (tradename) and a wettable powder containing bicyclopyrone prepared in accordance with a conventional formulation method were diluted with water (in an amount corresponding to 1,000 L/ha) and applied for soil treatment by a small sprayer.
as §2, with “28th” for “14th”, “Japanese millet” for “korean lespedeza”, “9.” for “6.”

[9] = system: rostrate sesbania (Sesbania rostrata Bremek. & Oberm.); assay: Test Example 8: pot test, soil treatment, visual growth inhibition; conditions: 2000 g/ha, soil treatment, 28th day after treatment, read-out: Growth inhibition rate (%) of rostrate sesbania Measured value
Method: (§4) Upland field soil was put into a 1/300,000 ha pot, and seeds of rostrate sesbania (Sesbania rostrata Bremek. & Oberm.) were sown. On the next day, predetermined amounts of ONEHOPE NYUZAI (tradename), Click (tradename), Spectrum (tradename) and Clio (tradename) were diluted with water (in an amount corresponding to 1,000 L/ha) and applied for soil treatment by a small sprayer.
as §2, with “28th” for “14th”, “rostrate sesbania” for “korean lespedeza”, “8.” for “6.”

[10] = system: common cocklebur (Xanthium strumarium L.); assay: Test Example 1: pot test, foliar treatment, visual growth inhibition; conditions: 1000 g/ha, foliar treatment at 4.3 to 4.8-leaf stage, 22nd day after treatment, read-out: Growth inhibition rate (%) of common cocklebur Measured value
From the text: In the present invention, a synergistic effect means a higher herbicidal activity of three active ingredients combined, than the simple sum of the respective herbicidal activities of the three active ingredients (the expected activity). The activity expected by the combination of three active ingredients can be calculated as follows (Colby S.R., "Weed", vol. 15, p. 20-22, 1967). […] Upland field soil was put into a 1/300,000 ha pot, and seeds of common cocklebur (Xanthium strumarium L.) were sown. […] Click, manufactured by BASF) and EC formulation containing dimethenamid-P as an active ingredient (tradename: Spectrum, manufactured by BASF) were diluted with water (in an amount corresponding to 1,000 L/ha) and applied for foliar treatment by a small sprayer. On the 22nd day after treatment, the state of growth of the common cocklebur was visually observed to determine the growth inhibition rate (%) in accordance with the following evalution standard. The growth inhibition rate (%) (measured value) and the growth inhibition rate (%) (calculated value) calculated by the Colby's formula are shown in Table 1.

[11] = system: guinea grass (Panicum maximum Jacq.); assay: Test Example 15: pot test, soil and foliar treatment, visual growth inhibition; conditions: Megathyrsus maximus, 31st day after treatment, read-out: Growth inhibition rate (%) of guinea grass Measured value
Method: (§5) Upland field soil was put into a 1/1,000,000 ha pot, and seeds of guinea grass (Panicum maximum Jacq.) were sown. When the guinea grass reached 5.2 to 6.0-leaf stage, seeds of guinea grass were further sown in the same pot assuming conditions such that weeds would later grow. On the next day, predetermined amounts of ONEHOPE NYUZAI (tradename), Click (tradename), Spectrum (tradename) and Cadou (tradename) were diluted with water in an amount corresponding to 300 L/ha and applied for soil treatment and for foliar treatment by a small sprayer.
as §2, with “31 st” for “14th”, “guinea grass” for “korean lespedeza”, “15.” for “6.”

[12] = system: guinea grass (Panicum maximum Jacq.); assay: Test Example 17: pot test, soil and foliar treatment, visual growth inhibition; conditions: Megathyrsus maximus, 1000 g/ha, 29th day after treatment, read-out: Growth inhibition rate (%) of guinea grass Measured value
Method: as §5, with “Three days later,” for “On the next day,”, “Click” for “Click (tradename), Spectrum”, “Spectrum” for “Cadou”
as §2, with “29th” for “14th”, “guinea grass” for “korean lespedeza”, “17.” for “6.”

[13] = system: prickly sida (Sida spinosa L.); assay: Test Example 10: pot test, soil treatment, visual growth inhibition; conditions: 200 g/ha, soil treatment, 28th day after treatment, read-out: Growth inhibition rate (%) of prickly sida Measured value
Method: as §4, with “prickly sida (Sida spinosa L.)” for “rostrate sesbania (Sesbania rostrata Bremek. & Oberm.)”, “Spectrum (tradename), Callisto” for “Spectrum”
as §2, with “28th” for “14th”, “prickly sida” for “korean lespedeza”, “10.” for “6.”

SMILES	inhibition at 400 g/ha [1] [%]	inhibition at 75 g/ha [2] [%]	inhibition at 100 g/ha [3] [%]	inhibition at 25 g/ha [4] [%]	inhibition at 50 g/ha [5] [%]	inhibition at 150 g/ha [5] [%]	inhibition at 100 g/ha [6] [%]	inhibition at 100 g/ha [7] [%]	inhibition at 25 g/ha [8] [%]	inhibition at 2000 g/ha [9] [%]	inhibition at 1000 g/ha [10] [%]	inhibition at 500 g/ha ([11]; 500 g/ha) [%]	inhibition at 1000 g/ha ([11]; 1000 g/ha) [%]	inhibition at 1000 g/ha [12] [%]	inhibition at 200 g/ha [13] [%]
COCCOCc1nc(C(F)(F)F)ccc1C(=O)C1=C(O)C2CCC(C2)C1=O (stereo not drawn) [Bicyclopyrone, 4-hydroxy-3-{2-[(2-methoxyethoxy)methyl]-6-(trifluoromethyl)-3-pyridylcarbonyl}bicyclo[3.2.1]oct-3-en-2-one]	15	89	88	20	88	93	78	25	83	–	–	–	–	–	–
COC[C@H](C)N(C(=O)CCl)c1c(C)csc1C [Dimethenamid-P, (S)-2-chloro-N-(2,4-dimethyl-3-thienyl)-N-(2-methoxy-1-methylethyl)acetamide]	–	–	–	–	–	–	–	–	–	40	0	57	60	55	0
